From ChEMBL document CHEMBL1139197, “Synthesis, structural analysis, and SAR studies of triazine derivatives as potent, selective Tie-2 inhibitors” (Bioorg Med Chem Lett, 2007)
≈ marks a conversion by molar mass, not a printed value.

Experiments:
[1] = molecular target: T1, Angiopoietin-1 receptor (Homo sapiens, UniProt Q02763); assay: Inhibition of Tie2 after 90 mins by HTRF assay
[2] = molecular target: T2, Vascular endothelial growth factor receptor 2 (Homo sapiens, UniProt P35968); assay: Inhibition of KDR after 90 mins by HTRF assay
T2 sequence (P35968 whole entry): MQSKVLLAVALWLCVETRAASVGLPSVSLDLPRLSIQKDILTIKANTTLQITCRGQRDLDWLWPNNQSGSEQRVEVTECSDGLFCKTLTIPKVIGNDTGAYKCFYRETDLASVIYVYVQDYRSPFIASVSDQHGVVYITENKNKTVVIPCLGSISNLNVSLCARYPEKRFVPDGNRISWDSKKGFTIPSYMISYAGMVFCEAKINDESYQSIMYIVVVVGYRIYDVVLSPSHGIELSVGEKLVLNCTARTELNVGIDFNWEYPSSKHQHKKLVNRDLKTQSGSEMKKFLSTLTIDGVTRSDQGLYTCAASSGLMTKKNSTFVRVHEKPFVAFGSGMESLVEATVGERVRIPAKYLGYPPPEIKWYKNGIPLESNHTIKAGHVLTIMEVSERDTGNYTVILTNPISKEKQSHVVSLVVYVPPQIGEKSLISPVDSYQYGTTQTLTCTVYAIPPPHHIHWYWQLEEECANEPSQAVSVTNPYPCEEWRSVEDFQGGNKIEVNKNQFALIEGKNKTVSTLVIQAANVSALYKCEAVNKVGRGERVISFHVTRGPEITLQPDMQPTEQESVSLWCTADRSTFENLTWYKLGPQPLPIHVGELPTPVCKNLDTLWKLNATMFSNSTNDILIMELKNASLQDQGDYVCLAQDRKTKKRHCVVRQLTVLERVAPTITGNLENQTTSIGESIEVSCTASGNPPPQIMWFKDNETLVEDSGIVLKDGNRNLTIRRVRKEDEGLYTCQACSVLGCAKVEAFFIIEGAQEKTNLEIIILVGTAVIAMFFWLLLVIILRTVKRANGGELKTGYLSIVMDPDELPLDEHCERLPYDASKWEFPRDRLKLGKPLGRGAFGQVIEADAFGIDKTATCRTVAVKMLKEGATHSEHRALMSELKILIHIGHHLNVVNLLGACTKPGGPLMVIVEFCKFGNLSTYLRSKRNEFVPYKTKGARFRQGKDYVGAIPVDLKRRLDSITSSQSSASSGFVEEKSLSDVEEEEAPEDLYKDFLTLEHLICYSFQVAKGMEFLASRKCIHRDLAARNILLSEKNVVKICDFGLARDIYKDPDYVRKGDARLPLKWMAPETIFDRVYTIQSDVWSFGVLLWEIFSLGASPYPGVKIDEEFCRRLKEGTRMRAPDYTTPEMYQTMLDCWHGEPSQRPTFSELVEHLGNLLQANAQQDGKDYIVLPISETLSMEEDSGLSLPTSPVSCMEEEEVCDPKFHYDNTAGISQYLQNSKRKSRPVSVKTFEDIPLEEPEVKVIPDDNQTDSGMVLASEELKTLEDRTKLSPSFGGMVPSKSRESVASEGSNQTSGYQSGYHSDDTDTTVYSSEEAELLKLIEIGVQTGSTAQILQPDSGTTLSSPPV

[3] = Clearance in Sprague-Dawley rat at 2 mg/kg, iv; assay type: ADME, organism-based; design: dose 2 mg/kg, route intravenous; conditions: in vivo
[4] = molecular target: T1, Angiopoietin-1 receptor; assay: Inhibition of Tie2 autophosphorylation in EA.hy926 cells after […]; assay type: cell-based
[5] = molecular target: Vascular endothelial growth factor receptor 2 and tyrosine-protein kinase TIE-2 (KDR and TIE2) (Homo sapiens) (UniProt P35968+Q02763); assay: Selectivity for Tie2 over KDR in cell based autophosphorylation assay
Sequence of Vascular endothelial growth factor receptor 2 and tyrosine-protein kinase TIE-2 (KDR and TIE2) (Homo sapiens) (P35968 whole entry, looked up): as the sequence (P35968 whole entry) above
Sequence of Vascular endothelial growth factor receptor 2 and tyrosine-protein kinase TIE-2 (KDR and TIE2) (Homo sapiens) (Q02763 whole entry, looked up): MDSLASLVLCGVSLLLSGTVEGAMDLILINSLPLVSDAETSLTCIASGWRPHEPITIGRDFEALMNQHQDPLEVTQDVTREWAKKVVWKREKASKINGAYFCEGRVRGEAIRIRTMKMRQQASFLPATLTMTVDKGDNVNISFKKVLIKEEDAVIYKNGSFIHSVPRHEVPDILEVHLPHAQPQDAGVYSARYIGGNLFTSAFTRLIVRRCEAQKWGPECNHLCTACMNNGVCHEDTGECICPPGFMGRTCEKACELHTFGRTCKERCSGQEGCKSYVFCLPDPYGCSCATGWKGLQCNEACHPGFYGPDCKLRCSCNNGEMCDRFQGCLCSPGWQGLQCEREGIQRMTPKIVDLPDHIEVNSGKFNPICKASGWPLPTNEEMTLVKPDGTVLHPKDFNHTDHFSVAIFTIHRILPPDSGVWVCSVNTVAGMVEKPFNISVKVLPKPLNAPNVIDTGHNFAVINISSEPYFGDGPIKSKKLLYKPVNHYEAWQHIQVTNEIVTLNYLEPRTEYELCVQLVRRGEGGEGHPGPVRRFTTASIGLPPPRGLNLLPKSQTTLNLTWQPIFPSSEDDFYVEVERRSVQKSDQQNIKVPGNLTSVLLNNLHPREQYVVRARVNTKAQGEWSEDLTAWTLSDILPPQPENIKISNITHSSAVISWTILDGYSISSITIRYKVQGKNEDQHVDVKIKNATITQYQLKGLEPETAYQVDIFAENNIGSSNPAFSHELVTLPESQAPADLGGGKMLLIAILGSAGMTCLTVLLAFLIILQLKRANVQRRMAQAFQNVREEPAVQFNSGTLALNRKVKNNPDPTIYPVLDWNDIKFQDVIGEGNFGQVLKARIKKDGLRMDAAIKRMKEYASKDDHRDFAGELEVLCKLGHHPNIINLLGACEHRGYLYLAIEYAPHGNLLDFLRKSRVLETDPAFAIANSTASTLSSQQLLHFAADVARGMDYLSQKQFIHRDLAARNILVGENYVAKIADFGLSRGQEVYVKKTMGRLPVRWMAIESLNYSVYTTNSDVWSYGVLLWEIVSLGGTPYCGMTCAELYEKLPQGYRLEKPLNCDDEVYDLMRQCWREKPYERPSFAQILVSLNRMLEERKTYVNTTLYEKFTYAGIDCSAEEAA

[6] = molecular target: T2, Vascular endothelial growth factor receptor 2; assay: Inhibition of KDR autophosphorylation in EA.hy926 cells after […]; assay type: cell-based
[7] = Half life in Sprague-Dawley rat at 2 mg/kg, iv; assay type: ADME, organism-based; design: dose 2 mg/kg, route intravenous; conditions: in vivo
[8] = Mean residence time in Sprague-Dawley rat; assay type: ADME, organism-based; conditions: in vivo
[9] = molecular target: Mast/stem cell growth factor receptor Kit (Homo sapiens, UniProt P10721); assay: Inhibition of cKit by radioactive filtration assay
[10] = molecular target: T3, Mitogen-activated protein kinase 14 (Homo sapiens, UniProt Q16539); assay: Inhibition of p38-alpha in THP1 cells assessed as TNFalpha levels; assay type: cell-based, THP-1
T3 sequence (Q16539 whole entry): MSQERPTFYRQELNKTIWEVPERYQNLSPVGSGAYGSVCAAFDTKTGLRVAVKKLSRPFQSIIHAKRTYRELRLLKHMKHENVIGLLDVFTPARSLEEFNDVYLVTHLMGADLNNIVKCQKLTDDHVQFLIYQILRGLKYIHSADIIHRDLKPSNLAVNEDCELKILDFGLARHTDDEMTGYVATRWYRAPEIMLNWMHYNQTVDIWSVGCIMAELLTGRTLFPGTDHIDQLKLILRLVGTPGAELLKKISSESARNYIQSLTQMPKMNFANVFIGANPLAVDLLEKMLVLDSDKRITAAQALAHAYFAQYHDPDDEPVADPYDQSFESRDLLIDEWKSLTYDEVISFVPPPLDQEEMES

[11] = Oral bioavailability in Sprague-Dawley rat at 10 mg/kg, po; assay type: ADME, organism-based; conditions: in vivo
[12] = molecular target: Tyrosine-protein kinase JAK2 (Homo sapiens, UniProt O60674); assay: Inhibition of Jak2 by radioactive filtration assay
Sequence of Tyrosine-protein kinase JAK2 (O60674 whole entry): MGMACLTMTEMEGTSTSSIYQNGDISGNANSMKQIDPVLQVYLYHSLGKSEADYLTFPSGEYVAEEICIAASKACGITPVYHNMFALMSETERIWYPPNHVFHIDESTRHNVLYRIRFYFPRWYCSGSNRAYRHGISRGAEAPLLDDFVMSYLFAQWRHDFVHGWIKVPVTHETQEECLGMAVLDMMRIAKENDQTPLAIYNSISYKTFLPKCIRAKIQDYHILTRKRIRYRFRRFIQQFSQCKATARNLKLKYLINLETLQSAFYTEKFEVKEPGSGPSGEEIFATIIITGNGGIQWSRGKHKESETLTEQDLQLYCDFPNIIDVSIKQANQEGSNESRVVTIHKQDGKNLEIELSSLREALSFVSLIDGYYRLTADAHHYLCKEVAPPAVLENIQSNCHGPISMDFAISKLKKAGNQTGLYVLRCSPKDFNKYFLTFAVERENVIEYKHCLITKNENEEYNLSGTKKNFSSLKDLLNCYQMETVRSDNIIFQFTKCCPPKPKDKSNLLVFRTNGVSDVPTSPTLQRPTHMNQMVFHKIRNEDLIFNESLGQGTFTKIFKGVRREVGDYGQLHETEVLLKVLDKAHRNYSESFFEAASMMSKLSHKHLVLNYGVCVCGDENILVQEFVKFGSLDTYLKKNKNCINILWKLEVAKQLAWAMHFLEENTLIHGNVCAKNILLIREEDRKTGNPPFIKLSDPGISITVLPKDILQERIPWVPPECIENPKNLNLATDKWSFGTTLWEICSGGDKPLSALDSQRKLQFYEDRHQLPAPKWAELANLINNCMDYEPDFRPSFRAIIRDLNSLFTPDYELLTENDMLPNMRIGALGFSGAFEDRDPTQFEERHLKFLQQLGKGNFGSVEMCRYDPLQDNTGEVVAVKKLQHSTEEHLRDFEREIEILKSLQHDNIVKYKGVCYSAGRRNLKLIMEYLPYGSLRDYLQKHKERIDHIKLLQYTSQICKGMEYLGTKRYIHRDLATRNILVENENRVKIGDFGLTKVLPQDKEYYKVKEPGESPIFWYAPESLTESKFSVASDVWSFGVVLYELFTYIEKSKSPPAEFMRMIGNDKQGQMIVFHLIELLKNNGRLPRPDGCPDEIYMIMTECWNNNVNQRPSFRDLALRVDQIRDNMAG

[13] = Cmax in Sprague-Dawley rat at 10 mg/kg, po; assay type: ADME, organism-based; design: dose 10 mg/kg, route oral; conditions: in vivo
[14] = Volume of distribution in Sprague-Dawley rat at 2 mg/kg, iv; assay type: ADME, organism-based; design: dose 2 mg/kg, route intravenous; conditions: in vivo, read-out: Vdss
[15] = molecular target: T3, Mitogen-activated protein kinase 14; assay: Inhibition of p38-alpha by radioactive filtration assay
[16] = molecular target: Tyrosine-protein kinase Lck (Homo sapiens, UniProt P06239); assay: Inhibition of Lck by radioactive filtration assay
[17] = Solubility in phosphate buffer at pH 7.1; assay type: physicochemical
[18] = molecular target: Proto-oncogene tyrosine-protein kinase Src (Homo sapiens, UniProt P12931); assay: Inhibition of Src by radioactive filtration assay
Sequence of Proto-oncogene tyrosine-protein kinase Src (P12931 2-536 limits assumed): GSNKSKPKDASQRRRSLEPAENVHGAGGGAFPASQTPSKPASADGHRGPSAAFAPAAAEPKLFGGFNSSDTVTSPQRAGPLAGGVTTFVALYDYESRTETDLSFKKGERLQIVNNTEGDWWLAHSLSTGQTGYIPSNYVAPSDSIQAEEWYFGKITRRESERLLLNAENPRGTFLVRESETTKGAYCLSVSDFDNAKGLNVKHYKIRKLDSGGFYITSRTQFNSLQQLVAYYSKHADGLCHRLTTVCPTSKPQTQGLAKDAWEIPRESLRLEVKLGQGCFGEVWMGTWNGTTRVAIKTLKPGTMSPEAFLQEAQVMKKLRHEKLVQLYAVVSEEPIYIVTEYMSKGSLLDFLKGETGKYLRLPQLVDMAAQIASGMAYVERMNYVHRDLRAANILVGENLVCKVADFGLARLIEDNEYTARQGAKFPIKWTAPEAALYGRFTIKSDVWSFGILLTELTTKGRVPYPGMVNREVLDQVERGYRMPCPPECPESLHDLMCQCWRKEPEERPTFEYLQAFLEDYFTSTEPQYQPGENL

[19] = molecular target: Fibroblast growth factor receptor (Homo sapiens, UniProt P22607+P11362+P22455+P21802); assay: Inhibition of FGFR by radioactive filtration assay; assay type: protein assay
[20] = AUC (0 to infinity) in Sprague-Dawley rat at 10 mg/kg, po; assay type: ADME, organism-based; design: time infinity, dose 10 mg/kg, route oral; conditions: plasma
[21] = molecular target: Mitogen-activated protein kinase 10 (Homo sapiens, UniProt P53779); assay: Inhibition of JNK3 by radioactive filtration assay
Sequence of Mitogen-activated protein kinase 10 (P53779 whole entry): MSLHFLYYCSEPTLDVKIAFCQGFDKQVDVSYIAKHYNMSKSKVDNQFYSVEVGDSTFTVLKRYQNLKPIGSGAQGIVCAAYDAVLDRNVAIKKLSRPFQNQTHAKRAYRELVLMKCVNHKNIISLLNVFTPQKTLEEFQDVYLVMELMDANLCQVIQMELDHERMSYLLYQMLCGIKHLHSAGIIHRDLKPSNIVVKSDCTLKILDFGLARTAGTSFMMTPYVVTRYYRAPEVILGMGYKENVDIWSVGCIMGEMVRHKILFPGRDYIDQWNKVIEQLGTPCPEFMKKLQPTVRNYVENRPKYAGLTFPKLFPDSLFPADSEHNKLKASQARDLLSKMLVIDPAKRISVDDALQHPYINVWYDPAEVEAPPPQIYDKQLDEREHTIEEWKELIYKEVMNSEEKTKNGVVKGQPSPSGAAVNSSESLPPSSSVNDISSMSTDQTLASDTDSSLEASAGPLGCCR

[22] = Solubility in 0.01 N HCl at pH 2.0; assay type: physicochemical

T1 sequence (Q02763 whole entry): as the sequence (Q02763 whole entry, looked up) above

## CNc1ncnc(-c2cccnc2Oc2cc(NC(=O)c3cccc(C(F)(F)F)c3)ccc2C)n1
[1]
  IC50: 20 nM
[2]
  IC50: 309 nM

## CNc1ncnc(-c2cccnc2Oc2cccc(NC(=O)c3cccc(C(C)C)c3)c2)n1
[1]
  IC50: 6 nM
[3]
  clearance: 73.7 mL/min/kg
[2]
  IC50: 456 nM
[4]
  IC50: 85 nM

## Cc1ccc(NC(=O)c2cccc(C(F)(F)F)c2)cc1Nc1ncccc1-c1ccncn1
[2]
  IC50: 61 nM

## CNc1ncnc(-c2cccnc2Oc2cc(C(=O)Nc3cccc(C(C)C)c3)ccc2C)n1
[1]
  IC50: 1 nM
[2]
  IC50: 20 nM

## CNc1ncnc(-c2cccnc2Oc2cc(NC(=O)c3cccc(-n4cccc4)c3)ccc2C)n1
[5]
  Ratio IC50: > 1000
[1]
  IC50: 17 nM
[6]
  IC50: 25000 nM
[3]
  clearance: 63.8 mL/min/kg
[2]
  IC50: 1130 nM
[4]
  IC50: 23 nM

## CNc1cc(-c2cccnc2Oc2ccc(Cl)c(NC(=O)c3cccc(C(C)C)c3)c2)ccn1
[1]
  IC50: 6 nM
[2]
  IC50: 9 nM

## CNc1cc(-c2cccnc2Oc2cc(C(=O)Nc3cccc(C(C)C)c3)ccc2C)ccn1
[1]
  IC50: 3 nM
[2]
  IC50: 5 nM

## CNc1ncnc(-c2cccnc2Oc2cc(NC(=O)c3cccc(C(C)C)c3)ccc2F)n1
[7]
  half-life: 0.8 h
[1]
  IC50: 4 nM
[3]
  clearance: 18.4 mL/min/kg
[2]
  IC50: 128 nM
[8]
  MRT: 0.5 h

## CNc1cc(-c2cccnc2Oc2cccc(NC(=O)c3cccc(C(C)C)c3)c2)ccn1
[1]
  IC50: 4 nM
[2]
  IC50: 18 nM

## CNc1ncnc(-c2cccnc2Oc2cc(NC(=O)c3cccc(OC(F)(F)C(F)F)c3)ccc2C)n1
[9]
  IC50: 17800 nM
[10]
  IC50: 194 nM
[11]
  bioavailability: 4%
[12]
  IC50: 1750 nM
[13]
  Cmax: 119 ng/mL
[7]
  half-life: 1.7 h
[14]
  Vd: 1.31 L/kg
[15]
  IC50: 47 nM
[16]
  IC50: 146 nM
[1]
  IC50: 16 nM
[6]
  IC50: 4300 nM
[3]
  clearance: 14.8 mL/min/kg
[2]
  IC50: 1000 nM
[17]
  solubility: 3 µg/mL (≈ 5.68 µM)
[18]
  IC50: 2190 nM
[19]
  IC50: 5360 nM
[4]
  IC50: 33 nM
[20]
  AUC(0-inf): 509 ng·h/mL
[21]
  IC50: 40000 nM
[8]
  MRT: 1.5 h
[22]
  solubility: 21 µg/mL (≈ 39.7 µM)

## CNc1nccc(-c2cccnc2Oc2cc(C(=O)Nc3cccc(C(C)C)c3)ccc2C)n1
[1]
  IC50: 13 nM
[2]
  IC50: 38 nM

## CNc1nccc(-c2cccnc2Oc2cc(NC(=O)c3cccc(C(C)C)c3)ccc2C)n1
[1]
  IC50: 2 nM
[2]
  IC50: 2 nM

## CNc1ncnc(-c2cccnc2Oc2cc(NC(=O)c3cccc(OC(F)(F)F)c3)ccc2C)n1
[1]
  IC50: 8 nM
[6]
  IC50: 540 nM
[3]
  clearance: 83 mL/min/kg
[2]
  IC50: 442 nM
[4]
  IC50: 15 nM

## CNc1ncnc(-c2cccnc2Oc2cc(NC(=O)c3cccc(C(C)C)c3)ccc2C)n1
[1]
  IC50: 1 nM
[3]
  clearance: 65.7 mL/min/kg
[2]
  IC50: 117 nM
[4]
  IC50: 5 nM

## CNc1cc(-c2cccnc2Oc2cc(NC(=O)c3cccc(C(C)C)c3)ccc2C)ccn1
[1]
  IC50: 1 nM
[3]
  clearance: 54.3 mL/min/kg
[2]
  IC50: 18 nM
[4]
  IC50: 11 nM

## CNc1ncnc(-c2cccnc2Oc2cc(NC(=O)c3cccc(C(C)C)c3)cc(C(F)(F)F)c2)n1
[1]
  IC50: 55 nM
[2]
  IC50: 25000 nM

## CNc1cc(-c2cccnc2Oc2cc(NC(=O)c3cccc(OC(F)(F)C(F)F)c3)ccc2C)ccn1
[1]
  IC50: 9 nM
[6]
  IC50: 943 nM
[3]
  clearance: 60.7 mL/min/kg
[2]
  IC50: 233 nM
[4]
  IC50: 13 nM
